Source: US20220387359A1, “SYNERGISTIC INHIBITORS OF CREB-MEDIATED GENE TRANSCRIPTION” (OREGON HEALTH & SCIENCE UNIVERSITY, priority 2019, published 2022)
Counter-ions that a name gives are not always drawn. Like-named read-outs stand apart in the source and are kept apart here. Blank lines part the entries; values can stand above or below the molecule they belong to.

Tests used:
[1] = from reference 15; cited from earlier work
[2] = tested on: CREB-mediated gene transcription; assay: CREB transcription renilla luciferase reporter assay in HEK 293T cells; assay type: cell-based; conditions: for IC50: Homo sapiens; for combination index (CI) in inhibiting CREB-mediated gene transcription: Chou-Talalay; for effect of combination with 666-15 on inhibition of CREB-mediated gene transcription: compound combined with 666-15
Procedure: ^a The IC50 refers to the concentration needed to inhibit 50% of the CREB-mediated gene transcription in HEK 293T cells using a transcription renilla luciferase reporter assay. The data are presented as mean±standard deviation (SD) of at least two independent experiments, which were performed in triplicates.
To test this possibility, we employed a transcription luciferase reporter assay in HEK 293T cells.^22 Briefly, the cells were transfected with a CREB renilla luciferase reporter plasmid (CRE-RLuc). This plasmid expresses renilla luciferase under the control of three tandem copies of CRE in the promoter region.
Inhibition of CREB-mediated gene transcription. HEK 293T cells were transfected with CRE-RLuc. Then the cells were treated with increasing concentrations of individual compounds (FIG. 2A) or drug combinations (FIG. 2B) for 30 min before the addition of Fsk (10 μM) for 5 h. The renilla luciferase activity was normalized to the protein concentration in each well and expressed as relative luciferase unit (RLU)/μg protein. The errors are SEM from one representative experiment in triplicate.
HEK293T cells in a well of 6-well plate were transfected with a plasmid (1 μg) encoding renilla luciferase under the control of three copies of CRE (pCRE-RLuc) using Lipofectamin^2000 (Life Technologies) for 3 h. Then the cells were replated into a 96-well plate and the cells were allowed to attach to the bottom of the plate for overnight. The cells were treated with different concentrations of the compounds for 30 min, when Fsk (10 μM) was added to the cells. The cells were further incubated for 5 h at 37° C. The media were removed and the cells were lysed in 30 μl 1× renilla luciferase lysis buffer (Promega) and the renilla luciferase activity was measured using the renilla luciferase assay system (Promega). The protein concentration in each well was determined using the Protein Assay Dye Reagent Concentrate (Bio-rad). The luciferase activity in each well was normalized to the protein concentration and expressed as relative luciferase unit (RLU)/μg protein. The IC50 was calculated in Prism 5.0 using the non-linear regression analysis.

[3] = stability of stock solution in DMSO; assay type: physicochemical; conditions: long-term storage of stock solution
[4] = conversion of ester 3 in complete cell culture media (DMEM with 10% FBS), HPLC; assay type: in vitro ADME; conditions: 37° C.
Procedure: With the desired compound 3 in hand, we first investigated the possibility of transformation of 3 into 666-15 in the complete cell culture media (Dulbecco's Modified Eagle Medium with 10% fetal bovine serum (FBS)). […] In stark contrast to the structural congener 2,^15 only a small amount of 666-15 was generated under the reaction condition. In order to investigate if simple ester hydrolysis was occurring to generate products 9 and 10 (FIG. 2A), we compared the main peaks eluted at 10.5 min and 11.2 min with standard samples of 9 and 10 by HPLC.
Compound 3 (200 μM) was incubated with complete tissue culture media (DMEM with 10% FBS) at 37° C. for various time periods. An aliquot of 10 μl was taken at a given time point and mixed with acetonitrile (90 μL). The mixture was centrifuged at 14,000×rpm for 5 min at room temperature in a tabletop centrifuge to precipitate proteins. The supernatant was collected and analyzed by HPLC eluting with a linear of water and acetonitrile, both of which contained 0.1% TFA.

[5] = aqueous solubility in ddH2O; assay type: physicochemical; conditions: water
From the text: Furthermore, we discovered a novel compound that can potentiate 666-15's inhibitory effect against CREB-mediated gene transcription in living cells.
The synthesis of compound 3 is presented in Scheme 1. […] Under the coupling conditions we used before (BOP, DIPEA, room temperature),^13 a mixture of compositional isomers 6 and 7 (2-(3-(3-((tert-butoxycarbonyl)amino)propoxy)-2-naphthamido)-5-chlorophenyl 3-(2-((tert-butoxy carbonyl)amino)ethoxy)-2-naphthoate) involving acyl group swapping was obtained. These two isomers were only partially separable by conventional silica gel column chromatograph. […] The formation of the unanticipated alternative ester 7 was likely a result of generation of imide intermediate 8 (2-(3-(2-((tert-butoxycarbonyl)amino)ethoxy)-2-naphthamido)-5-chloro-3-hydroxyphenyl 3-(3-((tert-butoxycarbonyl) amino)propoxy)-2-naphthoate) although it was not detected from the reaction mixture. The intermediate 8 could be generated either before the formation of 6 (2-(3-(2-((tert-butoxycarbonyl) amino)ethoxy)-2-naphthamido)-5-chlorophenyl 3-(3-((tert-butoxycarbonyl)amino) propoxy)-2-naphthoate) or after 6 was formed. Once 8 was produced, it could generate either 6 or 7 through an ester bond formation (Scheme 1). […] The Boc groups (tert-butyloxycarbonyl protecting groups) in 6 were then deprotected under acidic condition (HCl, DCM) to give 3 uneventfully. […]

[6] = tested on: MDA-MB-231 cells; assay: cell growth inhibition MTT assay; assay type: cell-based
Procedure: Then the viable cells were quantified by the MTT reagent. […] The data are presented as mean+SEM. The SEM was from one representative experiment performed in duplicates.
The cells were plated in 96-well plates at 1,000 cells/well and allowed to attach to the bottom of the plate for overnight. Then the cells were treated with different concentrations of compounds for 72 h at 37° C. At the end of treatment, the viable cells were determined by incubating cells with MTT reagent (0.5 mg/mL) in the complete tissue culture media for 3 h. Then the media were removed and the formed purple formazan was dissolved in DMSO for quantification by absorbance at 570 nm using a SpectraMax i3 plate reader (Molecular Devices). The percent of growth is defined as 100×(Atreated−Ainitial)/(Acontrol−Ainitial), where Atreated represents absorbance in wells treated with a compound, Ainitial represents the absorbance at time 0, and Acontrol denotes media-treated cells.

[7] = tested on: NR4A2; assay: endogenous CREB target gene expression by qRT-PCR in HEK 293T cells; assay type: cell-based; conditions: Fsk-stimulated HEK 293T cells
[8] = molecular target: KIX-KID interaction (Homo sapiens, UniProt Q92793); assay: split renilla luciferase complementation assay of KIX-KID interaction; assay type: cell-based
Sequence of KIX-KID interaction (Q92793 587-666 limits assumed): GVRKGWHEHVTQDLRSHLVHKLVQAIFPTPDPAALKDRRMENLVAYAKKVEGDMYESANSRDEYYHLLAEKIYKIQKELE

[9] = HEK 293T cells, CRE-RLuc reporter, Fsk stimulated, mean ± SD of at least two independent experiments, read-out: CREB inhibition (IC50)

SMILES: NCCCOc1cc2ccccc2cc1C(=O)Oc1cc(Cl)ccc1NC(=O)c1cc2ccccc2cc1OCCN (as salt: hydrochloride) [Compound 3, 2-(3-(2-Aminoethoxy)-2-naphthamido)-5-chlorophenyl 3-(3-Aminopropoxy)-2-naphthoate Dihydrochloride]
- melting point: 216 to 217 °C

SMILES: NCCCOc1cc2ccccc2cc1C(=O)Nc1ccc(Cl)cc1OC(=O)c1cc2ccccc2cc1OCCCN [Compound 2, 2-(3-(3-aminopropoxy)-2-naphthamido)-5-chlorophenyl 3-(3-aminopropoxy)-2-naphthoate]
- aqueous solubility in ddH2O [1]: > 100 mg/mL

SMILES: NCCCOc1cc2ccccc2cc1C(=O)Oc1cc(Cl)ccc1NC(=O)c1cc2ccccc2cc1OCCN [Compound 3, 2-(3-(2-Aminoethoxy)-2-naphthamido)-5-chlorophenyl 3-(3-Aminopropoxy)-2-naphthoate Dihydrochloride]
- IC50 ([2]; HEK-293T, read-out: CREB inhibition (IC50, μM)): 0.25 ± 0.11 µM
- stability in DMSO [3]: unstable in DMSO for long-term storage
- conversion in complete cell culture media [4]: rapidly converted into four new product peaks
- solubility [5]: > 100 mg/mL

SMILES: NCCCOc1cc2ccccc2cc1C(=O)Nc1ccc(Cl)cc1O [Compound 11, 3-(3-aminopropoxy)-N-(4-chloro-2-hydroxyphenyl)-2-naphthamide]
- combination index (CI) in inhibiting CREB-mediated gene transcription ([2]; 11 (5 μM) combined with 666-15 0.01 μM): 2.87
- combination index (CI) in inhibiting CREB-mediated gene transcription ([2]; 11 (5 μM) combined with 666-15 0.05 μM): 0.31
- combination index (CI) in inhibiting CREB-mediated gene transcription ([2]; 11 (5 μM) combined with 666-15 0.1 μM): 0.17
- combination index (CI) in inhibiting CREB-mediated gene transcription ([2]; 11 (5 μM) combined with 666-15 0.5 μM): 0.37
- combination index (CI) in inhibiting CREB-mediated gene transcription ([2]; 11 (5 μM) combined with 666-15 1.0 μM): 0.56
- combination index (CI) in inhibiting CREB-mediated gene transcription ([2]; 11 (5 μM) combined with 666-15 5.0 μM): 2.41
- effect of combination with 666-15 on inhibition of CREB-mediated gene transcription ([2]; HEK 293T cells): significantly potentiated activity of 666-15
- IC50 [2, 9]: 26.3 ± 13.6 µM
- combination index (CI) of anti-proliferative effect ([6]; 11 (0.5 or 1.0 μM) combined with 666-15, 72 h): less than 1.0
- antiproliferative effect (cell growth) ([6]; 11 alone, 0.5 or 1.0 μM, 72 h): did not appreciably inhibit the cell growth
- expression level of NR4A2 ([7]; 666-15 (50 nM) combined with compound 11 (5 μM)): significant inhibition of NR4A2 transcription was observed
- expression level of NR4A2 ([7]; compound 11 alone, 5 μM): did not inhibit the expression of NR4A2
- IC50 [8]: > 50 µM

- melting point: 128 to 129 °C
- IC50 [2, 9]: > 50 µM
SMILES: O=C1NCCOc2cc3ccccc3cc21 [Compound 12, 3,4-dihydronaphtho[2,3-f][1,4]oxazepin-5(2H)-one]
- CREB inhibition potency ([2]; HEK 293T cells, compound alone): inactive
- effect of combination with 666-15 on inhibition of CREB-mediated gene transcription ([2]; HEK 293T cells): did not produce further inhibition of CREB-mediated gene transcription

- solubility [5]: < 0.5 mg/mL
SMILES: NCCCOc1cc2ccccc2cc1C(=O)NCCOc1cc2ccccc2cc1C(=O)Nc1ccc(Cl)cc1O [Compound 666-15, 3-(3-aminopropoxy)-N-(2-((3-((4-chloro-2-hydroxyphenyl)carbamoyl)naphthalen-2-yl)oxy)ethyl)-2-naphthamide]
